According to patent US10188630B2, “Methods for identifying and using inhibitors of casein kinase 1 epsilon isoform for inhibiting the growth and/or proliferation of MYC-driven tumor cells” (Fred Hutchinson Cancer Research Center, priority 2010, dated 2019):

Columns and labels:
[1] = system: SK-N-AS (normal MYCN expression) cells; experiment: Microscopic analysis of neuroblastoma cells after IC261; type: cell-based; conditions: 48 hours; 0.33 μM or 3.3 μM IC261
Protocol: (§1) Microscopic analysis of the SN-N-AS (normal MYCN expression) and IMR-32 (amplified MYCN expression) neuroblastoma cell lines, further supporting the differential effect of the CSNK1ε inhibitor, IC261, on the health and proliferation of neuroblastoma cells overexpressing MYCN. Referring to FIG. 5, top line, micrographs are provided illustrating SK-N-AS (normal MYCN expression) cells in culture before and 48 hours after culture with DMSO, 0.33 μM, or 3.3 μM IC261. Referring to FIG. 5, bottom line, micrographs are provided illustrating IMR-32 cells (amplified MYCN expression) in culture before and 48 hours after culture with DMSO, 0.1 μM, or 1.0 μM IC261.

[2] = system: IMR-32 cells (amplified MYCN expression); experiment: as above; type: cell-based; conditions: 48 hours; 0.1 μM or 1.0 μM IC261
Protocol: as §1

[3] = system: TOV112D/Luc human ovarian cancer cells; experiment: Peritoneal carcinomatosis model mice (TOV112D/Luc intraperitoneal xenograft); type: in vivo
Protocol: The effect of CSNK1ε on the cell viability of ovarian cancer cells was then investigated in vivo. Peritoneal carcinomatosis model mice were generated by the intraperitoneal injection of TOV112D/Luc cells. After one week, the mice were randomized into control and experimental groups, which then received daily injections of IC261 or DMSO carrier for three weeks. Weekly Luc imaging was performed for each mouse at the termination of each week of the experiment to monitor the relative viability of cancer cells that have established in the mice. […] As illustrated in the survival graph in FIG. 11B, the DMSO group and IC261 treatment groups diverged in percent survival starting at day 30 when the DMSO group began to experience drastic mortality.

For `COc1cc(OC)c(/C=C2/C(=O)Nc3ccccc32)c(OC)c1` [IC261], the “cell appearance in micrographs” value [1] was “maintained healthy spreading and attachment”, the “cell appearance in micrographs” value [2] was “detached from the plate surface and balled up” and the “survival vs DMSO group” value ([3]; daily injections for three weeks, groups diverged starting at day 30) was “prolonged the life of the subjects”. The “cancer cell proliferation and viability (Luc imaging) vs DMSO” value ([3]; daily injections, after two weeks) was “significantly reduced cancer cell proliferation and viability” and the “difference among treatment groups (Luc imaging)” value ([3]; week four) was “much more pronounced”.
